Test results: PubChem BioAssay AID248 (DTP/NCI, 2004)
Where “and” joins values, the source holds several entries; their conditions need not be identical. Identical values can stand only once. Toxic doses and inconclusive results are not listed. Cut-off read from the data, not from the text of the source: active = T/C of 150% or more; inactive = T/C below 125%.

System: L1210 leukemia ip in BDF1 mice, survival T/C
Experiment: NCI In Vivo Anticancer Drug Screen. Data for tumor model L1210 Leukemia (intraperitoneal) in B6D2F1 (BDF1) mice
Details: endpoint: mean survival time, higher = longer survival
How it was run: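 Value reflects the ratio of survival in compound-treated mice to survival in vehicle-treated controls, with both groups carrying the same transplanted tumor.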

[1] = dose: 50.0 mg/kg/injection, schedule: Q01DX009 (ip), vehicle: saline with Tween-80
[2] = dose: 100.0 mg/kg/injection, schedule: Q01DX009 (ip), vehicle: saline with Tween-80
[3] = dose: 100.0 mg/kg/injection, schedule: Q04DX003 (ip), vehicle: saline with Tween-80
[4] = dose: 200.0 mg/kg/injection, schedule: Q01DX009 (ip), vehicle: saline with Tween-80
[5] = dose: 200.0 mg/kg/injection, schedule: Q04DX003 (ip), vehicle: saline with Tween-80
[6] = dose: 400.0 mg/kg/injection, schedule: Q04DX003 (ip), vehicle: saline with Tween-80
[7] = dose: 100.0 mg/kg/injection, schedule: Q01DX009 (ip), vehicle: Klucel (hydroxypropylcellulose) (HPC)
[8] = dose: 200.0 mg/kg/injection, schedule: Q01DX009 (ip), vehicle: Klucel (hydroxypropylcellulose) (HPC)
[9] = dose: 400.0 mg/kg/injection, schedule: Q01DX009 (ip), vehicle: Klucel (hydroxypropylcellulose) (HPC)
[10] = dose: 100.0 mg/kg/injection, schedule: Q01DX001 (ip), vehicle: saline
[11] = dose: 200.0 mg/kg/injection, schedule: Q01DX001 (ip), vehicle: saline
[12] = dose: 400.0 mg/kg/injection, schedule: Q01DX001 (ip), vehicle: saline
[13] = dose: 100.0 mg/kg/injection, schedule: Q04DX003 (ip), vehicle: Klucel (hydroxypropylcellulose) (HPC)
[14] = dose: 100.0 mg/kg/injection, schedule: Q01DX001 (ip), vehicle: saline with Tween-80
[15] = dose: 200.0 mg/kg/injection, schedule: Q01DX001 (ip), vehicle: saline with Tween-80
[16] = dose: 400.0 mg/kg/injection, schedule: Q01DX001 (ip), vehicle: saline with Tween-80
[17] = dose: 25.0 mg/kg/injection, schedule: Q01DX009 (ip), vehicle: saline
[18] = dose: 50.0 mg/kg/injection, schedule: Q01DX009 (ip), vehicle: saline
[19] = dose: 100.0 mg/kg/injection, schedule: Q04DX002 (ip), vehicle: Klucel (hydroxypropylcellulose) (HPC)
[20] = dose: 200.0 mg/kg/injection, schedule: Q04DX002 (ip), vehicle: Klucel (hydroxypropylcellulose) (HPC)
[21] = dose: 75.0 mg/kg/injection, schedule: Q01DX001 (ip), vehicle: saline

Measured: T/C

Cc1nc(N)c(Cl)nc1C
inactive: [1] 96 % of control | [2] 100 % of control and 104 % of control | [3] 102 % of control | [4] 97 % of control and 98 % of control | [5] 96 % of control | [6] 88 % of control

Cc1ccc(NC(=S)/C(=C(\[O-])c2ccc([N+](=O)[O-])cc2)[n+]2ccc(C(C)C)cc2)c(C)c1
inactive: [7] 101 % of control | [8] 98 % of control | [9] 101 % of control

CC(C)CCC(C)c1ccncc1 (centres undefined)
inactive: [10] 103 % of control | [11] 97 % of control | [12] 100 % of control

CCOC(=O)c1c[nH]c2nc(SC)[nH]c(=O)c2c1=O
inactive: dose: 25.0 mg/kg/injection, schedule: Q01DX009 (ip), vehicle: Klucel (hydroxypropylcellulose) (HPC) 86 % of control | dose: 25.0 mg/kg/injection, schedule: Q04DX003 (ip), vehicle: Klucel (hydroxypropylcellulose) (HPC) 104 % of control | dose: 50.0 mg/kg/injection, schedule: Q01DX009 (ip), vehicle: Klucel (hydroxypropylcellulose) (HPC) 93 % of control | dose: 50.0 mg/kg/injection, schedule: Q04DX003 (ip), vehicle: Klucel (hydroxypropylcellulose) (HPC) 103 % of control | dose: 100.0 mg/kg/injection, schedule: Q01DX001 (ip), vehicle: Klucel (hydroxypropylcellulose) (HPC) 102 % of control | [7] 101 % of control | [13] 101 % of control | dose: 200.0 mg/kg/injection, schedule: Q01DX001 (ip), vehicle: Klucel (hydroxypropylcellulose) (HPC) 98 % of control | dose: 400.0 mg/kg/injection, schedule: Q01DX001 (ip), vehicle: Klucel (hydroxypropylcellulose) (HPC) 107 % of control

CC(C)(Br)C(=O)c1ccc(Cl)s1
inactive: [3] 96 % of control | [5] 107 % of control | [6] 105 % of control

NC(=S)c1ccncc1
inactive: [2] 104 % of control | [3] 103 % of control | [4] 104 % of control | [5] 109 % of control | dose: 400.0 mg/kg/injection, schedule: Q01DX009 (ip), vehicle: saline with Tween-80 112 % of control | [6] 101 % of control

CNc1cc(N2CCCC2)ccn1
inactive: dose: 5.0 mg/kg/injection, schedule: Q01DX001 (ip), vehicle: saline 104 % of control | dose: 10.0 mg/kg/injection, schedule: Q01DX001 (ip), vehicle: saline 110 % of control

O=c1ccc2cc3ccc(=O)oc3cc2o1
inactive: [14] 97 % of control | [15] 97 % of control | [16] 87 % of control

O=c1[nH]c2ccccc2nc1C(Cl)Cl
inactive: [13] 115 % of control

Nc1nc(N)c(-c2cccc(Cl)c2)c(CBr)n1
inactive: dose: 12.5 mg/kg/injection, schedule: Q01DX009 (ip), vehicle: saline 101 % of control | [17] 102 % of control | [18] 104 % of control

Cc1cc(OC(=O)Nc2cccc3ccccc23)ccc1Cl
inactive: dose: 100.0 mg/kg/injection, schedule: Q01DX009 (ip), vehicle: carboxymethylcellulose (CMC) 97 % of control and 101 % of control | [19] 105 % of control | dose: 100.0 mg/kg/injection, schedule: Q04DX002 (ip), vehicle: carboxymethylcellulose (CMC) 93 % of control and 91 % of control | dose: 100.0 mg/kg/injection, schedule: Q04DX003 (ip), vehicle: carboxymethylcellulose (CMC) 103 % of control | dose: 200.0 mg/kg/injection, schedule: Q01DX009 (ip), vehicle: carboxymethylcellulose (CMC) 98 % of control and 91 % of control | [20] 97 % of control | dose: 200.0 mg/kg/injection, schedule: Q04DX002 (ip), vehicle: carboxymethylcellulose (CMC) 97 % of control and 98 % of control | dose: 200.0 mg/kg/injection, schedule: Q04DX003 (ip), vehicle: carboxymethylcellulose (CMC) 94 % of control | dose: 400.0 mg/kg/injection, schedule: Q01DX009 (ip), vehicle: carboxymethylcellulose (CMC) 94 % of control and 98 % of control | dose: 400.0 mg/kg/injection, schedule: Q04DX002 (ip), vehicle: Klucel (hydroxypropylcellulose) (HPC) 109 % of control | dose: 400.0 mg/kg/injection, schedule: Q04DX002 (ip), vehicle: carboxymethylcellulose (CMC) 95 % of control | dose: 400.0 mg/kg/injection, schedule: Q04DX003 (ip), vehicle: carboxymethylcellulose (CMC) 90 % of control

[O-]c1nn(-c2ccccc2)c2cccc[n+]12
inactive: [21] 111 % of control

CC(=O)OCC1OC(OC(C)=O)C(NS(=O)(=O)c2ccc(C)cc2)C(OC(C)=O)C1OC(C)=O (centres undefined)
inactive: [10] 102 % of control | [11] 104 % of control | [12] 102 % of control

COc1cc2oc(C)c(C)c2cc1/C=C\[N+](=O)[O-]
inactive: dose: 50.0 mg/kg/injection, schedule: Q04DX002 (ip), vehicle: Klucel (hydroxypropylcellulose) (HPC) 96 % of control | [7] 93 % of control | [19] 93 % of control | [8] 98 % of control | [20] 96 % of control | [9] 100 % of control

O=c1[nH]n(-c2ccccc2)c(=O)cc1Cl
inactive: [1] 97 % of control | [2] 89 % of control | [4] 86 % of control

Fc1c(Cl)c(F)c(Cl)c(F)c1Cl
inactive: dose: 100.0 mg/kg/injection, schedule: Q01DX001 (ip), vehicle: carboxymethylcellulose (CMC) 94 % of control | dose: 200.0 mg/kg/injection, schedule: Q01DX001 (ip), vehicle: carboxymethylcellulose (CMC) 97 % of control | dose: 400.0 mg/kg/injection, schedule: Q01DX001 (ip), vehicle: carboxymethylcellulose (CMC) 94 % of control

COc1ccc(C(=O)OCc2ccccc2CN2CCCCC2C)cc1 (centres undefined)
inactive: dose: 100.0 mg/kg/injection, schedule: Q04DX002 (ip), vehicle: saline 94 % of control | dose: 200.0 mg/kg/injection, schedule: Q04DX002 (ip), vehicle: saline 108 % of control | dose: 400.0 mg/kg/injection, schedule: Q04DX002 (ip), vehicle: saline 86 % of control

CCOC(=O)Cc1cnc(SC)nc1N
inactive: [13] 95 % of control | dose: 200.0 mg/kg/injection, schedule: Q04DX003 (ip), vehicle: Klucel (hydroxypropylcellulose) (HPC) 94 % of control | dose: 400.0 mg/kg/injection, schedule: Q04DX003 (ip), vehicle: Klucel (hydroxypropylcellulose) (HPC) 87 % of control

NCCc1cn(C2OC(CO)C(O)C(O)C2O)c2ccccc12 (centres undefined)
inactive: dose: 25.0 mg/kg/injection, schedule: Q01DX005 (ip), vehicle: saline 96 % of control and 106 % of control | dose: 50.0 mg/kg/injection, schedule: Q01DX005 (ip), vehicle: saline 96 % of control | dose: 100.0 mg/kg/injection, schedule: Q01DX005 (ip), vehicle: saline 109 % of control and 87 % of control

CCCOc1ccc(=S)[nH]n1
inactive: [10] 103 % of control | dose: 100.0 mg/kg/injection, schedule: Q04DX003 (ip), vehicle: saline 101 % of control | [11] 95 % of control | dose: 200.0 mg/kg/injection, schedule: Q04DX003 (ip), vehicle: saline 106 % of control | [12] 98 % of control | dose: 400.0 mg/kg/injection, schedule: Q04DX003 (ip), vehicle: saline 95 % of control

CC(=O)Nc1ccccc1C(C)=O
inactive: [3] 92 % of control | [5] 93 % of control | [6] 93 % of control

CCC(/C=C\C(C)C1CCC2C3CC=C4CC(OS(=O)(=O)c5ccc(C)cc5)CCC4(C)C3CCC12C)C(C)C (centres undefined)
inactive: [14] 90 % of control | [15] 90 % of control | [16] 86 % of control

CC(=O)OC(OC(C)=O)c1cccc2ccccc12
inactive: dose: 222.0 mg/kg/injection, schedule: Q01DX Z (ip), vehicle: saline 91 % of control | dose: 333.0 mg/kg/injection, schedule: Q01DX Z (ip), vehicle: saline 98 % of control | dose: 500.0 mg/kg/injection, schedule: Q01DX Z (ip), vehicle: saline 109 % of control

CNC(=O)N(C)C1C(OC)OC2COC(c3ccccc3)OC2C1O (centres undefined)
inactive: [17] 100 % of control | [18] 105 % of control | dose: 100.0 mg/kg/injection, schedule: Q01DX009 (ip), vehicle: saline 100 % of control | dose: 200.0 mg/kg/injection, schedule: Q01DX009 (ip), vehicle: saline 100 % of control

CN(C)C(=O)CCOc1cccc2ccccc12
inactive: [21] 100 % of control

CN(C)c1ccc(C(=O)C#N)cc1
inactive: [7] 100 % of control | [8] 108 % of control | [9] 100 % of control
